target: T1, N-terminally GST-tagged human full length recombinant Mps-1 kinase (Homo sapiens, UniProt P33981); assay: Mps-1 kinase assay (TR-FRET); assay type: biochemical; settings: Mps1 IC50 [nM], 10 μM ATP, 1 μM peptide substrate, 60 min at 22° C.
T1 construct: N-terminally GST-tagged human full length recombinant Mps-1 kinase; purchased Invitrogen, Karslruhe, Germany PV4071
T1 sequence (P33981 1-857): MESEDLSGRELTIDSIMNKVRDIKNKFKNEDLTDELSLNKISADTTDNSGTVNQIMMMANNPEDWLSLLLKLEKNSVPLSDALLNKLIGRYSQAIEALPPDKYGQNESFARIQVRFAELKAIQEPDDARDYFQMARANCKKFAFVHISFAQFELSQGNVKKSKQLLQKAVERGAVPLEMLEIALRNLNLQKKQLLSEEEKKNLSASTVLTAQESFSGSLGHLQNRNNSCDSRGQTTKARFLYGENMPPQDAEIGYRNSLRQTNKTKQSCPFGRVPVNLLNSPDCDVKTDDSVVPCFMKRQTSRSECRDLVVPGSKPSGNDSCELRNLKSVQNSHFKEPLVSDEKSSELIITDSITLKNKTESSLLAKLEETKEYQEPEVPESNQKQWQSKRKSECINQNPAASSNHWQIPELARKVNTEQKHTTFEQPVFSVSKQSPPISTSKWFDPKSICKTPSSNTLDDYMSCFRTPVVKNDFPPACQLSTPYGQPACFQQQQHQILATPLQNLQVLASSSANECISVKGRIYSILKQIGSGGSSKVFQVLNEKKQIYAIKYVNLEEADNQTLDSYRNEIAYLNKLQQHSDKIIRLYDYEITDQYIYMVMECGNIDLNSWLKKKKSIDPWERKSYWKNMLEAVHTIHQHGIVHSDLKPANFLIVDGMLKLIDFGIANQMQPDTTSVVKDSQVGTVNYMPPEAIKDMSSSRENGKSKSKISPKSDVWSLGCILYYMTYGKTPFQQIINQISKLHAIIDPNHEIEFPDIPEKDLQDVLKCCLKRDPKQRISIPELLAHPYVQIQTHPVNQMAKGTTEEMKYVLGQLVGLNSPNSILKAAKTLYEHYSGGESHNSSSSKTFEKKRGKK
Procedure, shortened: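 Kinase activity of N-terminally GST-tagged full-length recombinant Mps-1, used at about 1 nM final and set within the linear range, was measured on a biotinylated peptide substrate. Phosphopeptide was detected by TR-FRET from Eu-anti-phospho(Ser/Thr) antibody to streptavidin-XLent after 1 h at 22° C.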

Row | Structure (SMILES) | IC50
1 | Cc1cc(-c2cnc3c(NCC(C)(C)O)cc(Nc4ccc(F)c(F)c4)nn23)ccc1C(=O)NC1CC1 [Example 307, N-cyclopropyl-4-{6-[(3,4-difluorophenyl)amino]-8-[(2-hydroxy-2-methylpropyl)amino]imidazo[1,2-b]pyridazin-3-yl}-2-methylbenzamide] | 0.5 nM
2 | Cc1cccc(Nc2cc(NCC(C)(C)O)c3ncc(-c4ccc(C(=O)NC5CC5)c(C)c4)n3n2)c1 [Example 308, N-cyclopropyl-4-{8-[(2-hydroxy-2-methylpropyl)amino]-6-[(3-methylphenyl)amino]imidazo[1,2-b]pyridazin-3-yl}-2-methylbenzamide] | 1 nM
3 | Cc1cc(-c2cnc3c(NCC4CCN(C)CC4)cc(Oc4cccc(F)c4)nn23)ccc1C(=O)NC1CC1 [Example 311, N-cyclopropyl-4-[6-(3-fluorophenoxy)-8-{[(1-methylpiperidin-4-yl)methyl]amino}imidazo[1,2-b]pyridazin-3-yl]-2-methyl-benzamide] | 0.2 nM
4 | Cc1cc(-c2cnc3c(NCCCN(C)C)cc(Oc4cccc(F)c4)nn23)ccc1C(=O)NC1CC1 [Example 312, N-cyclopropyl-4-[8-{[3-(dimethylamino)propyl]amino}-6-(3-fluorophenoxy)imidazo[1,2-b]pyridazin-3-yl]-2-methyl-benzamide] | 0.2 nM
5 | Cc1cc(-c2cnc3c(NCCS(C)(=O)=O)cc(Oc4cccc(F)c4)nn23)ccc1C(=O)NC1CC1 [Example 313, N-cyclopropyl-4-[6-(3-fluorophenoxy)-8-{[2-(methylsulfonyl)ethyl]amino}imidazo[1,2-b]pyridazin-3-yl]-2-methyl-benzamide] | 0.1 nM
6 | Cc1cc(-c2cnc3c(NCC(C)(C)N)cc(Oc4cccc(F)c4)nn23)ccc1C(=O)NC1CC1 [Example 314, 4-{8-[(2-amino-2-methyl-propyl)amino]-6-(3-fluorophenoxy)imidazo[1,2-b]pyridazin-3-yl}-N-cyclopropyl-2-methyl-benzamide] | 0.2 nM
7 | Cc1cc(-c2cnc3c(NCC4CNC4)cc(Oc4ccccc4)nn23)ccc1C(=O)NC1CC1 [Example 315, 4-{8-[(azetidin-3-ylmethyl)amino]-6-phenoxy-imidazo[1,2-b]pyridazin-3-yl}-N-cyclopropyl-2-methylbenzamide] | 0.3 nM
8 | Cc1cc(-c2cnc3c(NCC(C)(C)O)cc(Sc4nnc[nH]4)nn23)ccc1C(=O)NC1CC1 [Example 316, N-cyclopropyl-4-{8-[(2-hydroxy-2-methylpropyl)amino]-6-(4H-1,2,4-tri-azol-3-ylsulfanyl)imidazo [1,2-b]pyridazin-3-yl}-2-methylbenzamide] | 118 nM
9 | Cc1c[nH]c(Sc2cc(NCC(C)(C)O)c3ncc(-c4ccc(C(=O)NC5CC5)c(C)c4)n3n2)n1 [Example 317, N-cyclopropyl-4-{8-[(2-hydroxy-2-methylpropyl)amino]-6-[(4-methyl-1H-imidazol-2-yl)sulfanyl]imidazo[1,2-b]pyridazin-3-yl}-2-methylbenzamide] | 7.4 nM
10 | Cc1cc(-c2cnc3c(NCC(C)(C)O)cc(Sc4ncc[nH]4)nn23)ccc1C(=O)NC1CC1 [Example 318, N-cyclopropyl-4-{8-[(2-hydroxy-2-methylpropyl)amino]-6-(1H-imidazol-2-ylsulfanyl)imidazo[1,2-b]pyridazin-3-yl}-2-methylbenzamide] | 64.3 nM
11 | Cc1cc(-c2cnc3c(NCC(C)(C)O)cc(Oc4ccnn4C)nn23)ccc1C(=O)NC1CC1 [Example 319, N-cyclopropyl-4-{8-[(2-hydroxy-2-methylpropyl)amino]-6-[(1-methyl-1H-pyrazol-5-yl)oxy]imidazo[1,2-b]pyridazin-3-yl}-2-methylbenzamide] | 121 nM
12 | Cc1cc(-c2cnc3c(NCC(C)(C)O)cc(Oc4ccc(N5CCNCC5)cc4)nn23)ccc1C(=O)NC1CC1 [Example 320, N-cyclopropyl-4-{8-[(2-hydroxy-2-methylpropyl)amino]-6-[4-(piperazin-1-yl)phenoxy]imidazo [1,2-b]pyridazin-3-yl}-2-methylbenzamide] | 3.3 nM
